Holding throughout (assay type): functional
For one experiment, the system named is Acinetobacter baumannii. The experiment is described as follows: Antimicrobial activity against […] Acinetobacter baumannii ATCC 19606 by broth microdilution method.
Experiment [1] has as its system Staphylococcus aureus. The experiment is described as follows: Antimicrobial activity against Staphylococcus aureus ATCC 25923 by broth microdilution method. A general note: Dilution methods test growth across graded concentrations, often in twofold steps.
Experiment [2] has as its system Staphylococcus aureus. The experiment is described as follows: Antimicrobial activity against methicillin-resistant Staphylococcus aureus CUN 3792-99 by broth microdilution method.
In experiment [3] the test system is Pseudomonas aeruginosa. The experiment is described as follows: Antimicrobial activity against Pseudomonas aeruginosa CUN 4158-02 by broth microdilution method.
Experiment [4] has as its system Pseudomonas aeruginosa. The experiment is described as follows: Antimicrobial activity against Pseudomonas aeruginosa ATCC 27853 by broth microdilution method.
For experiment [5], the system named is Staphylococcus aureus. The experiment is described as follows: Antimicrobial activity against methicillin-resistant Staphylococcus aureus ATCC 43300 by broth microdilution method.
For experiment [6], the system named is Stenotrophomonas maltophilia. The experiment is described as follows: Antimicrobial activity against […] Stenotrophomonas maltophilia CUN 3998-00 by broth microdilution method.
A further experiment concerns Escherichia coli. The experiment is described as follows: Antimicrobial activity against Escherichia coli ATCC 25922 by broth microdilution method.
For experiment [7], the system named is Bordetella bronchiseptica. The experiment in a line: Antimicrobial activity against Bordetella bronchiseptica CUN11844-99 by broth microdilution method.

Each structure is given as a SMILES string. ≈ marks a conversion by molar mass, not a printed value. Residues, ends and D or L forms follow the SMILES beside them.

Regarding `N=C(N)NCCC[C@H](NC(=O)[C@H](Cc1ccc(O)cc1)NC(=O)[C@H](CCCCN)NC(=O)[C@H](CCCCN)NC(=O)CN)C(=O)N[C@@H](CCCNC(=N)N)C(=O)N[C@@H](Cc1ccccc1)C(=O)N[C@@H](CCCNC(=N)N)C(=O)N[C@@H](Cc1c[nH]c2ccccc12)C(=O)N[C@@H](CCCCN)C(=O)N[C@@H](Cc1ccccc1)C(=O)N[C@@H](CCCCN)C(=O)NCC(=O)N[C@@H](CCCCN)C(=O)N[C@@H](Cc1c[nH]c2ccccc12)C(=O)N[C@@H](Cc1ccccc1)C(=O)N[C@@H](Cc1c[nH]c2ccccc12)C(=O)N[C@@H](Cc1ccccc1)C(=O)NCC(=O)O` (H-GKKYRRFRWKFKGKWFWFG-OH), the MIC in the experiment on Acinetobacter baumannii, with Staphylococcus aureus [1], in the experiment on Staphylococcus aureus [2], in the experiment with Pseudomonas aeruginosa [3], with Pseudomonas aeruginosa [4] and in the experiment on Staphylococcus aureus [5] was 16 mg/L (≈ 6.13 µM) throughout. The MIC (in general, the smallest concentration in the dilution series that meets the test's criterion for growth inhibition) was 32 mg/L (≈ 12.3 µM) in [6], 16 mg/L (≈ 6.13 µM) in the experiment on Escherichia coli and 4 mg/L (≈ 1.53 µM) in experiment [7].

As for `N=C(N)NCCC[C@H](NC(=O)CNC(=O)[C@H](CCCNC(=N)N)NC(=O)[C@H](Cc1ccccc1)NC(=O)[C@H](CCCNC(=N)N)NC(=O)[C@H](Cc1c[nH]c2ccccc12)NC(=O)[C@H](CCCCN)NC(=O)[C@H](Cc1ccccc1)NC(=O)[C@H](CCCCN)NC(=O)[C@H](CCCCN)NC(=O)[C@H](Cc1ccc(O)cc1)NC(=O)[C@H](CCCNC(=N)N)NC(=O)[C@H](CCCNC(=N)N)NC(=O)CN)C(=O)N[C@@H](Cc1ccccc1)C(=O)N[C@@H](Cc1c[nH]c2ccccc12)C(=O)N[C@@H](Cc1ccccc1)C(=O)N[C@@H](Cc1c[nH]c2ccccc12)C(=O)NCC(=O)O` (H-GRRYKKFKWRFRGRFWFWG-OH), the minimum inhibitory concentration (MIC) with Staphylococcus aureus [1] is 32 mg/L (≈ 12 µM); with Escherichia coli, 64 mg/L (≈ 24 µM); in [7], 16 mg/L (≈ 6 µM).

As for `N=C(N)NCCC[C@H](NC(=O)CNC(=O)[C@H](CCCNC(=N)N)NC(=O)[C@H](Cc1ccc(O)cc1)NC(=O)[C@H](CCCNC(=N)N)NC(=O)[C@H](Cc1c[nH]c2ccccc12)NC(=O)[C@H](CCCCN)NC(=O)[C@H](CCCCN)NC(=O)[C@H](Cc1ccccc1)NC(=O)[C@H](CCCCN)NC(=O)[C@H](CCCCN)NC(=O)[C@H](Cc1ccccc1)NC(=O)[C@H](CCCNC(=N)N)NC(=O)[C@H](CCCNC(=N)N)NC(=O)[C@H](CS)NC(=O)CN)C(=O)N[C@@H](Cc1ccccc1)C(=O)N[C@@H](Cc1c[nH]c2ccccc12)C(=O)N[C@@H](Cc1ccccc1)C(=O)N[C@@H](Cc1c[nH]c2ccccc12)C(=O)N[C@@H](CS)C(=O)N[C@@H](Cc1ccccc1)C(=O)NCC(=O)O` (H-GCRRFKKFKKWRYRGRFWFWCFG-OH), the MIC stood at 64 mg/L (≈ 20.3 µM) in the experiment on Acinetobacter baumannii; 64 mg/L (≈ 20.3 µM) against Staphylococcus aureus [1]; 64 mg/L (≈ 20.3 µM) with Staphylococcus aureus [2]; 128 mg/L (≈ 40.7 µM) in the experiment with Pseudomonas aeruginosa [3]; 128 mg/L (≈ 40.7 µM) in the experiment on Pseudomonas aeruginosa [4]; 32 mg/L (≈ 10.2 µM) in the experiment on Staphylococcus aureus [5]. Further, the MIC in [6] was found to be 64 mg/L (≈ 20.3 µM); against Escherichia coli it was 64 mg/L (≈ 20.3 µM); in [7], 32 mg/L (≈ 10.2 µM).

For `CC(C)C[C@H](NC(=O)[C@H](Cc1c[nH]c2ccccc12)NC(=O)[C@H](CC(C)C)NC(=O)[C@H](CCCCN)NC(=O)[C@H](CCC(N)=O)NC(=O)[C@H](CCCCN)NC(=O)[C@H](CS)NC(=O)[C@H](CCCCN)NC(=O)[C@H](CC(C)C)NC(=O)[C@H](CCCCN)NC(=O)[C@H](Cc1ccccc1)NC(=O)[C@H](CCCNC(=N)N)NC(=O)[C@H](CCCNC(=N)N)NC(=O)[C@H](Cc1ccccc1)NC(=O)[C@H](CCCCN)NC(=O)[C@H](CCCCN)NC(=O)[C@H](CS)NC(=O)CN)C(=O)N[C@@H](Cc1c[nH]c2ccccc12)C(=O)N[C@@H](CS)C(=O)NCC(=O)O` (H-GCKKFRRFKLKCKQKLWLWCG-OH), the MIC came out at 64 mg/L (≈ 24.1 µM) against Acinetobacter baumannii; 1020 mg/L (≈ 385 µM) against Staphylococcus aureus [1]; 32 mg/L (≈ 12 µM) in the experiment on Staphylococcus aureus [2]; 256 mg/L (≈ 96.3 µM) in the experiment with Pseudomonas aeruginosa [3]; 256 mg/L (≈ 96.3 µM) against Pseudomonas aeruginosa [4]; 64 mg/L (≈ 24.1 µM) with Staphylococcus aureus [5]. For the same compound, the figures for the MIC (in experiment [6]; in the experiment with Escherichia coli; in experiment [7]) were 1020 mg/L (≈ 385 µM), 1020 mg/L (≈ 385 µM) and 16 mg/L (≈ 6.02 µM), respectively.

Values taken from ChEMBL document CHEMBL1687767, “New antiseptic peptides to protect against endotoxin-mediated shock” (Antimicrob Agents Chemother, 2010).
